Assay results as given in patent US8835617B2, “Polynucleotides encoding a human TRIM-Cyp fusion polypeptide, compositions thereof, and methods of using same” (priority 2008, dated 2014).
Like-named read-outs stand apart in the source and are kept apart here.

Assays:
HIV-1 [1] = test system: HIV-1
Source text: CD4^+ T cells were enriched from PBMCs using MACS, and activated using irradiated allo-PBMC and IL-2. […] Cells were sorted based on GFP-expression and then challenged with replication-competent, CXCR4-tropic, HIV-1NL4-3. […] Cells were infected with HIV-1NL4-3, modified to be CCR5-tropic.
293T human embryonic kidney cells and CRFK feline kidney cells were maintained in DMEM supplemented with 10% fetal bovine serum (FBS) and glutamax (Invitrogen). […] CD4^+ T cells were enriched from PBMCs (>99% CD4^+) using positive selection magnetic beads (Miltenyi Biotec) and stimulated for 24 hrs on multisorb 96-well plates (Nunc) coated with 2 μg/ml anti-CD3 and 2 μg/ml anti-CD28 antibodies (BD Biosciences) in RPMI with 10% FBS, glutamax (Invitrogen) and 20 IU/ml hIL-2. When indicated and in preparation for adoptive transfer to mice, CD4^+ T cells were stimulated using allogeneic-PBMCs irradiated at 50 Gy in the presence of 20 IU/ml IL-2 and phytohemagglutinin (PHA) at 1 μg/ml. Cells were washed and replated 24 hrs prior to viral transduction. […]
2×10^4 adherent cells/well or 8×10^4 suspension cells/well were plated in 48-well plates (Nunc) for challenge with single-cycle GFP reporter vectors that were titered as indicated. GFP synthesis was assessed by flow cytometry 48 hrs post-infection. […] For infection of 10^6 primary CD4^+ T cells or macrophages, 15 ng p24/10^6 cells of a CXCR4- or CCR5-tropic HIV-1NL4-3 stock was used, and infection was monitored by assessing the accumulation of RT activity in the supernatant (Sayah et al., 2004). FACSCalibur, Cellquest Pro (Becton Dickinson), and FlowJo software (Treestar, Inc.) were used to record and analyze fluorescence. […]
CD4^+ T cells and monocyte-derived macrophages were infected with low passage derivatives of primary isolates HIV-1DH12 and HIV-1132W, respectively. […] Infection was monitored by assessing the accumulation of RT activity in the supernatant at the indicated day post-infection, at which point CD4^+ cells were split and macrophages were fed as required.

[2] = test system: primary human CD4+ T cells; assay: Proliferation, IL-2 production and surface markers of transduced primary CD4+ T cells; type: cell-based
Source text: The functions of endogenous CypA and T5 in hCD4^+ T cells remain largely uncharacterized. […] This complex inhibits T cell function by binding to the serine/threonine phosphatase calcineurin and blocking downstream signaling events (Handschumacher et al., 1984; Liu et al., 1991). Functionally, CypA is a peptidyl-prolyl isomerase (PPiase) which catalyses the rate-limiting cis-trans interconversion of peptide bonds N-terminal to proline, an enzymatic activity not required for immunosuppression via CsA (Fischer et al., 1984; Liu et al., 1991; Schmid, 1995). The peptidyl-prolyl isomerases are represented by three structurally distinct families: cyclophilins, FKBPs, and parvulins. Given their astounding evolutionary persistence, from some archeabacteria to all mammals, cyclophilins are not well understood (Colgan et al., 2000; Gothel and Marahiel, 1999).
Activated, scAPLS-transduced primary human CD4^+ T cells were maintained in culture for 6 days. 1×10^5 cells were transferred in triplicate into 96-well flat-bottom microplates (Falcon) and labeled for 18 h with […] of ^[3H]thymidine (GE-Amersham). The DNA-incorporated radioactivity was measured by liquid scintillation counting. Data were expressed as mean corrected counts per minute (ccpm) of […] cultures.
IL-2 producing capacity of hT5Cyp-expressing primary human T cells was assessed after stimulation for 6 h with 100 nM PMA and 1 μg/ml Ionomycin (Sigma-Aldrich). Brefeldin A (Sigma-Aldrich) was added at 10 μg/ml during the last 4 h of stimulation.
The following antibodies were used for cell surface stains of primary CD4^+ T cells: α-CD4 (RPA-T4), α-CXCR4 (12G5), and α-MHC I (HLA A, B, C) (G46-2.6) (all from BD-Pharmingen).

HIV-1 [3] = details: of CD45^+GFP^+ cells
Source text: HIV-1 infection spreads from cell to cell at high titer in complex lymphoid tissues with a specific hierarchy of T cell destruction and distinct kinetics in vivo (Douek et al., 2003). […] This mouse model takes advantage of the lack of functional B, T, and NK cells in Rag2^−/−γc^−/− mice and allows for improved engraftment of xenografts as well de novo intrathymic generation of human T cells (Baenziger et al., 2008; Mazurier et al., 1999). Briefly, CD34^+ hematopoietic stem and progenitor cells are enriched from cord blood of healthy donors by MACS and transplanted intrahepatically into irradiated, newborn Rag2^−/−γc^−/− mice (FIG. 63A). 2-4 months post-transplant, reconstitution of peripheral blood is assessed by flow cytometry, and mice with more that 5% hCD45^+ cells in peripheral blood are infected intraperitoneally (i.p.) with HIV-1 (FIG. 63A).
An aliquot of cells was maintained in culture with the subsequent addition of SCF, TPO, and Flt3L, and assessed for GFP-expression 72 hours post-transduction.
huRag2^−/−γc^−/− mice were generated as previously described^1. Briefly, fresh human cord blood was obtained with parent written informed consent from healthy full-term newborns (Department of Gynecology and Obstetrics, Ospedale San Giovanni, Bellinzona). […] Traggiai, E., et al. Development of a human adaptive immune system in cord blood cell-transplanted mice. […]

hT5Cyp: human TRIM5α fused at serine 322 to human cyclophilin A, SEQ ID NO:12
establishment of infection (HIV-1 [1]; CCR5-tropic HIV-1NL4-3): infection is not established
establishment of infection (HIV-1 [1]; CXCR4-tropic HIV-1NL4-3): infection was not established
block to infection (HIV-1 [1]; primary isolate HIV-1DH12): The same hT5Cyp-mediated block to infection
IL-2 production ([2]; PMA and ionomycin): produced comparable amounts of IL-2
proliferation ([2]; thymidine incorporation vs untransduced): proliferated at the same rate as untransduced cells
cell-surface marker expression ([2]; vs untransduced): expressed the same level of cell-surface CD4, CXCR4, and MHC I
Post-infection GFP^+ CD3 (HIV-1 [3]): 0%
